{"source": "BindingDB's records for doi:10.1016/j.bmcl.2003.08.015", "about": "(The University of Birmingham, 2003)", "target": "T1, 3-oxoacyl-[acyl-carrier-protein] synthase 3 (Mycobacterium tuberculosis (strain ATCC 25618 / H37Rv), UniProt P9WNG3)", "T1 sequence (P9WNG3 whole entry)": "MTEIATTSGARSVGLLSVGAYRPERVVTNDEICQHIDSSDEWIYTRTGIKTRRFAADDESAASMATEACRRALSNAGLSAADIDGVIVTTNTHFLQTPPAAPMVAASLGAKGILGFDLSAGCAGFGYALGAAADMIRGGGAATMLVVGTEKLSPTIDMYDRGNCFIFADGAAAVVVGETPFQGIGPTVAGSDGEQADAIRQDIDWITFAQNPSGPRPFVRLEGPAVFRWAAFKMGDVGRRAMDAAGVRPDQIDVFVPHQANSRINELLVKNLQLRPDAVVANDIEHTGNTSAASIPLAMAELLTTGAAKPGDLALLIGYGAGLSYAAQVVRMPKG", "test": "ChEBML_37595", "excerpt": "In vitro inhibitory activity against the recombinant Mycobacterium tuberculosis Beta-ketoacyl-ACP synthase III mtFabH condensing enzyme."}
{"compound": "CC1C(=O)SC(C)(Cc2cccc(Oc3ccccc3)c2)C1=O", "note": "(configuration not stated) [4-Hydroxy-3,5-dimethyl-5-(3-phenoxy-benzyl)-5H-thiophen-2-one]", "values": [{"measurement": "IC50", "value": 52, "unit": "µM"}]}
{"compound": "Cc1ccc(-c2ccc(CC3(C)SC(=O)C(C)C3=O)cc2)cc1", "note": "(configuration not stated) [4-Hydroxy-3,5-dimethyl-5-(4'-methyl-biphenyl-4-ylmethyl)-5H-thiophen-2-one]", "values": [{"measurement": "IC50", "value": 52, "unit": "µM"}]}
